Measured values from article PMC3262104 (Journal of the American Chemical Society, 2011).

Columns and labels:
P-gp [1] = target: T1, P-gp (Homo sapiens, UniProt P08183); test: Inhibition of P-gp-mediated efflux of calcein-AM in 12D7-MDR cells; format: cell-based
P-gp [2] = target: T1, P-gp; test: [125I]IAAP photo-crosslinking competition, crude Sf9 membranes expressing P-gp; format: binding
HIV-1LAI = test: Inhibition of HIV-1 replication, HIV p24 ELISA in infected 12D7 cells; format: cell-based; details: Human immunodeficiency virus 1, read-out: IC50 inhibition of HIV-1 replication
P-gp [3] = details: brain; cited from earlier work

T1 sequence (P08183 whole entry): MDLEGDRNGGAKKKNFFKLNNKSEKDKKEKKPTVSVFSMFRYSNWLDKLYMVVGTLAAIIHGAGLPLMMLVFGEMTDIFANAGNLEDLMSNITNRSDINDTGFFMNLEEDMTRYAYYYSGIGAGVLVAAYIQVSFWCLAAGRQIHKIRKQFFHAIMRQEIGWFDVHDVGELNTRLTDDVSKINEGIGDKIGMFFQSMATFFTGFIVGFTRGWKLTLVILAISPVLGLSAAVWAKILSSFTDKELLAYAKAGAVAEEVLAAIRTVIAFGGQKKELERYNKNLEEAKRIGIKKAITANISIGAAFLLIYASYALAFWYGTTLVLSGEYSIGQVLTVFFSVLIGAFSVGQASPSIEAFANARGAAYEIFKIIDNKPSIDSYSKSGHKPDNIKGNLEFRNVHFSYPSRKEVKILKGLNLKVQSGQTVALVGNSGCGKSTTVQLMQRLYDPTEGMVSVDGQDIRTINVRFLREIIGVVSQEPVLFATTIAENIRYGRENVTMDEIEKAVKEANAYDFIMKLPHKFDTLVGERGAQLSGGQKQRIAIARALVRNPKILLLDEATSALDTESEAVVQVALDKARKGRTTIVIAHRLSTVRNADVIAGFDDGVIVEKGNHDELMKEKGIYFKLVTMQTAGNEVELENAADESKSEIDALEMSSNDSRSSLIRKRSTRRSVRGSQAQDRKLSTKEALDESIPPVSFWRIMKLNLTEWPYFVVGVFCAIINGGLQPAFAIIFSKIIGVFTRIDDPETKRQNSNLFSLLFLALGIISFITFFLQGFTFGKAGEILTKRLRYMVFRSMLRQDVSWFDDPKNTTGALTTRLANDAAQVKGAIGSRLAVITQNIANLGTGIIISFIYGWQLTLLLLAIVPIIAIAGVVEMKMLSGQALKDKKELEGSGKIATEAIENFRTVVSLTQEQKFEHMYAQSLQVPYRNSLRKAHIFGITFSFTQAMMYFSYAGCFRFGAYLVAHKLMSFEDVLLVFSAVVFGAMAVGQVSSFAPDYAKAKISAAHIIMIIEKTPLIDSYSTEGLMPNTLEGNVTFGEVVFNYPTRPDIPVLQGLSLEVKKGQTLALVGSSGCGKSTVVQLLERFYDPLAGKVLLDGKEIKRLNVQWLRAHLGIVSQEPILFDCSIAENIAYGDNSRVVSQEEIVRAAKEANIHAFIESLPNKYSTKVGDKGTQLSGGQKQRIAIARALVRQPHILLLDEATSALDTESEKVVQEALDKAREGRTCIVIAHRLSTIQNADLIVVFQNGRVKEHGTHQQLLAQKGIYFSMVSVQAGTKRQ

SMILES: Nc1nc(NC2CC2)c2ncn([C@H]3C=C[C@@H](CO)C3)c2n1 [abacavir]
- IC50 (P-gp [1]): > 500 µM
- Inhibition of P-gp mediated efflux of fluorescent substrates (P-gp [1]; 12D7-MDR cells, at a concentration of 500 µM): only minimally effective
- IC50 (P-gp [2]): > 100 µM
- IC50 (HIV-1LAI): ~600 nM
- Increased levels in the brains of dosed P-gp-null mice versus dosed wild-type mice (P-gp [3]): 20 fold
